# Measured values reported in patent US9475755B2, “Prophylactic agent for chronic kidney disease” (SBI Pharmaceuticals Co., Ltd., priority 2011, dated 2016).
# Assays:
# [1] = Administration of radiolabeled ALA (14C-ALA) to research the pharmacokinetics of ALA; assay type: in vivo
# anemia in piglets = details: reported in Patent Document 1; cited from earlier work
# chronic kidney disease [2] = assay: Example 2: ingestion by a person diagnosed with chronic kidney disease, dose switched 50 mg / 5 mg / 50 mg; assay type: in vivo, human
# Description: The effects of ingesting aminolevulinic acid phosphate and sodium ferrous citrate were examined for a person diagnosed with chronic kidney disease.
# chronic kidney disease [3] = assay: Example 3: ingestion by a person with chronic kidney disease after removal of one kidney; assay type: in vivo, human; details: after ingestion of 150 mg aminolevulinic acid phosphate and 172 mg sodium ferrous citrate per day
# Description: The effects of ingesting aminolevulinic acid phosphate and sodium ferrous citrate were examined for a person diagnosed with chronic kidney disease after removing one of their kidneys about 5 years ago because of cancer.
# [4] = (c) after one month of switching to 5 mg aminolevulinic acid phosphate + 5.74 mg sodium ferrous citrate
# [5] = (d) after two months of switching to 5 mg aminolevulinic acid phosphate + 5.74 mg sodium ferrous citrate
Compound,"retention of radiation in the kidneys ([1]; ALA excessively administered, even if urine is discharged)",tissue accumulation of ALA-derived radiation ([1]; radiolabeled ALA (14C-ALA) administered),prevention of anemia (anemia in piglets),Serum creatinine (chronic kidney disease [2]; [4]) [mg/dL],Urea nitrogen (chronic kidney disease [2]; [4]) [mg/dL],eGFR (chronic kidney disease [2]; [4]) [mL/min/1.73 m^2],Serum creatinine (chronic kidney disease [2]; [5]) [mg/dL],Urea nitrogen (chronic kidney disease [2]; [5]) [mg/dL],eGFR (chronic kidney disease [2]; [5]) [mL/min/1.73 m^2],fatigue / quality of life (chronic kidney disease [2]; person who ingested aminolevulinic acid phosphate and sodium ferrous citrate),eGFR value (in words) (chronic kidney disease [2]; when 50 mg of aminolevulinic acid phosphate was ingested),eGFR value (in words) (chronic kidney disease [2]; when once again returned to 50 mg),improvement rate of the eGFR value (in words) (chronic kidney disease [2]; when reduced to 5 mg aminolevulinic acid phosphate and 5.74 mg sodium ferrous citrate),"serum creatinine (FIG. 1, in words) (chronic kidney disease [3])"
"NCC(=O)CCC(=O)O [ALA, 5-aminolevulinic acid]",radiation has remained in the kidneys even after the passing of time,"found in not only the anticipated liver and muscles, but also in the kidneys",effective in preventing anemia in piglets,,,,,,,,,,,
aminolevulinic acid phosphate,,,,1.14,12.90,50.10,1.25,14.10,45.30,relieved from the fatigue peculiar to chronic kidney disease,remarkably improved (increased),remarkable improvement,lowered,remarkable reduction
